These results are taken from ChEMBL document CHEMBL3879915, “Methods of inhibiting PRMT5” (2014).

A short description of assay [1]: Antiproliferative activity against human Z138 cells assessed as inhibition of cell viability after 5 days by Cell-Titer Glo assay. As to conditions: Z-138, 120 h. It counts as functional, cell-based.
For a further assay, the target named is PRMT5/MEP50 complex (Homo sapiens, UniProt O14744). The experiment in a line: Inhibition of recombinant human fetal brain FLAG-tagged PRMT5/full length human testis 6His-tagged MEP50 expressed in baculovirus infected insect Sf9 cells using human histone H4 (1 to 15 residues) as substrate preincubated for 30 mins followed by [3H]-SAM addition.
Assay [2] has as its target Protein arginine N-methyltransferase 5 (Homo sapiens, UniProt O14744). The experiment in a line: Inhibition of PRMT5 in human Z138 cells assessed as decrease in di-methyl arginine levels after 96 hrs by Western blot method. It counts as cell-based.

What is called pEC50 is the negative decadic logarithm of the EC50, by convention in mol/L. For orientation: pIC50 means the IC50 on a negative log10 scale, so that one unit is a factor of ten.

pEC50, pIC50: −log10 of the molar value.

PRMT5/MEP50 complex, sequence (O14744 whole entry, the tested form may be a part): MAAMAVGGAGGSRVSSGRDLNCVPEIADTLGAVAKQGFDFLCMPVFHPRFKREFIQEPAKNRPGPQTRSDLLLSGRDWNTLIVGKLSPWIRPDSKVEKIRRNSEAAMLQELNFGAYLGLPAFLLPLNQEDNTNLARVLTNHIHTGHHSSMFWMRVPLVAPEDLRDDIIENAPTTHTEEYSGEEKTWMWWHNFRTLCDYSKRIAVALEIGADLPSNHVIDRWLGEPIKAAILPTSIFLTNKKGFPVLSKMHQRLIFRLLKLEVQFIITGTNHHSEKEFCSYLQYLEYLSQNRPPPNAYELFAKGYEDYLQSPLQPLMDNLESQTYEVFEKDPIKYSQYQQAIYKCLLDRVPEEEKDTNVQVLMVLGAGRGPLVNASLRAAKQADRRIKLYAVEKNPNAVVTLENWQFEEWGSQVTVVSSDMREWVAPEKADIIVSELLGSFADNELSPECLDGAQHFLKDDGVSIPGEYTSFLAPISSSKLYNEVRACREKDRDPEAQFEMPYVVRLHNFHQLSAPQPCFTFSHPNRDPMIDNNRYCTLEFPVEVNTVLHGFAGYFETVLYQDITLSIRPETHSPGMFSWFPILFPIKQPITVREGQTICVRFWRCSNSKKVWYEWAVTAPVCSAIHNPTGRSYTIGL
PRMT5/MEP50 complex, sequence (Q9BQA1 whole entry, further chain, the tested form may be a part): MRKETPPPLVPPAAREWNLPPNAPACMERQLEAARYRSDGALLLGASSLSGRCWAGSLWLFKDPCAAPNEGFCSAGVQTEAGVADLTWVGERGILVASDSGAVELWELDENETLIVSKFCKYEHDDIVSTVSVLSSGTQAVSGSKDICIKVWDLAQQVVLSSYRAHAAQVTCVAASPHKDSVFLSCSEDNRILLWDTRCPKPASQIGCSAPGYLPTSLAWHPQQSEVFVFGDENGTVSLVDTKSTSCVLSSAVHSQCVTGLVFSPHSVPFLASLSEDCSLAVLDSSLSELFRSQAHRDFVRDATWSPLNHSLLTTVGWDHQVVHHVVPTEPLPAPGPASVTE
Protein arginine N-methyltransferase 5, sequence (O14744 whole entry): as the sequence (O14744 whole entry, the tested form may be a part) above

As to `O=C(COc1ccccc1C1CCNC1)NCC(O)CN1CCc2ccccc2C1` (stereo not given), the negative-log EC50 (pEC50) is < 4.70 in assay [1] and 5.00 to 6.00 in assay [2]. The negative logarithm of the IC50 (pIC50) at PRMT5/MEP50 complex is 5.00 to 6.00.

Turning to `O=C(NCC(O)CN1CCc2ccccc2C1)c1ccc(-c2ccccn2)cc1` (stereo not given), the pEC50 in assay [1] was 6.00 to 7.00; in assay [2] it was > 7.00. Further, the negative-log IC50 (pIC50) on PRMT5/MEP50 complex was > 7.00.

In the case of `O=C(NCC(O)CN1CCc2ccccc2C1)c1cccc(-c2ccncc2)c1` (stereo not given), the results for the negative-log EC50 (pEC50) in assay [1] and in assay [2] were 5.00 to 6.00 and > 7.00, respectively. In addition, the pIC50 on PRMT5/MEP50 complex is > 7.00.

As for `O=C(NCC(O)CN1CCc2ccccc2C1)c1cccc(-c2cccnc2)c1` (stereo not given), the pEC50 is 5.00 to 6.00 in assay [1] and > 7.00 in assay [2]. In addition, the pIC50 on PRMT5/MEP50 complex is > 7.00.

For the compound `O=C(NCC(O)CN1CCc2ccccc2C1)c1cccc(CN2CCNCC2)c1` (stereo not given), the negative logarithm of the EC50 (pEC50) in assay [1] was 5.00 to 6.00; in assay [2] it was 6.00 to 7.00. Moreover, the pIC50 at PRMT5/MEP50 complex was > 7.00.

Take `CN(c1cccc(OCC(=O)NCC(O)CN2CCc3ccccc3C2)c1)S(C)(=O)=O` (stereo not given): the values for the pEC50 in assay [1] and in assay [2] were < 4.70 and 6.00 to 7.00, respectively. Also, the pIC50 at PRMT5/MEP50 complex is 6.00 to 7.00.

In the case of `O=C(NCC(O)CN1CCc2ccccc2C1)c1cccnc1` (stereo not given), the negative logarithm of the EC50 (pEC50) in assay [1] is 4.30 to 5.00; in assay [2], 6.00 to 7.00. Further, the negative logarithm of the IC50 (pIC50) on PRMT5/MEP50 complex was 6.00 to 7.00.

Consider `CC(=O)Nc1ccc(C(=O)NCC(O)CN2CCc3ccccc3C2)cc1` (stereo not given), for which the pEC50 is < 4.70 in assay [1] and 6.00 to 7.00 in assay [2]. Besides, the negative logarithm of the IC50 (pIC50) at PRMT5/MEP50 complex was 6.00 to 7.00.

For the compound `O=C(COc1cccc2ncc(=O)[nH]c12)NCC(O)CN1CCc2ccccc2C1` (stereo not given), the pEC50 in assay [1] is < 4.70; in assay [2] it was 5.00 to 6.00. The pIC50 at PRMT5/MEP50 complex is 6.00 to 7.00.

Turning to `NC(=O)c1ccc(C(=O)NCC(O)CN2CCc3ccccc3C2)cc1` (stereo not given), the pEC50 is < 4.70 in assay [1] and 6.00 to 7.00 in assay [2]. Moreover, the negative-log IC50 (pIC50) at PRMT5/MEP50 complex was 6.00 to 7.00.

As for `O=C(NC[C@H](O)CN1CCc2ccccc2C1)Nc1ccccc1`, the negative logarithm of the EC50 (pEC50) in assay [1] was < 4.70; in assay [2], 6.00 to 7.00. The pIC50 at PRMT5/MEP50 complex was 6.00 to 7.00.

As to `CC(Oc1ccccc1S(C)(=O)=O)C(=O)NCC(O)CN1CCc2ccccc2C1` (stereo not given), the pEC50 was < 4.70 in assay [1] and 5.00 to 6.00 in assay [2]. Moreover, the negative logarithm of the IC50 (pIC50) at PRMT5/MEP50 complex was 6.00 to 7.00.

In the case of `O=C(NC[C@@H](O)CN1CCc2ccccc2C1)c1cccc(-c2ccccn2)c1`, the results for the negative-log EC50 (pEC50) in assay [1] and in assay [2] were 4.30 to 5.00 and 6.00 to 7.00, respectively. The pIC50 on PRMT5/MEP50 complex is > 7.00.

For the compound `O=C(COc1cccc2c1OCC(=O)N2)NCC(O)CN1CCc2ccccc2C1` (stereo not given), the negative-log EC50 (pEC50) is < 4.70 in assay [1] and 5.00 to 6.00 in assay [2]. In addition, the pIC50 at PRMT5/MEP50 complex is 5.00 to 6.00.

For the compound `CC(=O)Nc1cccc(C(=O)NCC(O)CN2CCc3ccccc3C2)c1` (stereo not given), the negative logarithm of the EC50 (pEC50) in assay [1] was 4.30 to 5.00; in assay [2], 6.00 to 7.00. Also, the pIC50 on PRMT5/MEP50 complex is 6.00 to 7.00.

On to `O=C(COc1cccc2c1CNCC2)NCC(O)CN1CCc2ccccc2C1` (stereo not given), for which the negative logarithm of the EC50 (pEC50) is 4.30 to 5.00 in assay [1] and 6.00 to 7.00 in assay [2]. The negative-log IC50 (pIC50) on PRMT5/MEP50 complex was > 7.00.

In the case of `O=C(NCC(O)CN1CCc2ccccc2C1)c1cccc(-c2ccccn2)c1` (stereo not given), the negative-log EC50 (pEC50) in assay [1] was 5.00 to 6.00; in assay [2], > 7.00. Further, the pIC50 on PRMT5/MEP50 complex is > 7.00.

For the compound `Cn1cc2c(OCC(=O)NCC(O)CN3CCc4ccccc4C3)cccc2n1` (stereo not given), the pEC50 is < 4.70 in assay [1] and 5.00 to 6.00 in assay [2]. Moreover, the pIC50 at PRMT5/MEP50 complex was 6.00 to 7.00.

Take `O=C(NCC(O)CN1CCc2ccccc2C1)c1cccc(N2CCOCC2)c1` (stereo not given): the pEC50 was 5.00 to 6.00 in assay [1] and 6.00 to 7.00 in assay [2]. The negative logarithm of the IC50 (pIC50) at PRMT5/MEP50 complex is > 7.00.

Consider `CN1CCCC(c2ccccc2OCC(=O)NCC(O)CN2CCc3ccccc3C2)C1` (stereo not given), for which the pEC50 in assay [1] was 5.00 to 6.00; in assay [2] it was 6.00 to 7.00. Further, at PRMT5/MEP50 complex, the pIC50 was > 7.00.

With `O=C(NCC(O)CN1CCc2ccccc2C1)c1cccc(CNC2CCOCC2)c1` (stereo not given), the negative-log EC50 (pEC50) is 4.30 to 5.00 in assay [1] and 6.00 to 7.00 in assay [2]. For the same compound, on PRMT5/MEP50 complex, the negative-log IC50 (pIC50) is > 7.00.

With `O=C(NCC(O)CN1CCc2ccccc2C1)c1cccc(-c2cc[nH]n2)c1` (stereo not given), the pEC50 in assay [1] is 5.00 to 6.00; in assay [2], 6.00 to 7.00. In addition, on PRMT5/MEP50 complex, the pIC50 is > 7.00.

For the compound `CN(C)C(=O)c1ccccc1OCC(=O)NCC(O)CN1CCc2ccccc2C1` (stereo not given), the pEC50 was 4.30 to 5.00 in assay [1] and 6.00 to 7.00 in assay [2]. Moreover, the pIC50 at PRMT5/MEP50 complex was 6.00 to 7.00.

Turning to `CN1CCc2cccc(OCC(=O)NCC(O)CN3CCc4ccccc4C3)c2C1` (stereo not given), the pEC50 in assay [1] was < 4.70; in assay [2], 5.00 to 6.00. The pIC50 at PRMT5/MEP50 complex is 6.00 to 7.00.

Regarding `CNS(=O)(=O)c1ccccc1OCC(=O)NCC(O)CN1CCc2ccccc2C1` (stereo not given), the pEC50 in assay [1] was 5.00 to 6.00; in assay [2], 6.00 to 7.00. Also, the pIC50 at PRMT5/MEP50 complex is > 7.00.

As to `NS(=O)(=O)c1ccc(C(=O)NCC(O)CN2CCc3ccccc3C2)cc1` (stereo not given), the pEC50 in assay [1] is < 4.70; in assay [2] it was 6.00 to 7.00. Also, at PRMT5/MEP50 complex, the negative logarithm of the IC50 (pIC50) was 6.00 to 7.00.

On to `Cn1nccc1-c1cccc(C(=O)NCC(O)CN2CCc3ccccc3C2)c1` (stereo not given), for which the pEC50 in assay [1] was 5.00 to 6.00; in assay [2] it was > 7.00. Besides, at PRMT5/MEP50 complex, the negative logarithm of the IC50 (pIC50) was > 7.00.

With `O=C(NC[C@H](O)CN1CCc2ccccc2C1)c1cccc(-c2ccccn2)c1`, the figures for the pEC50 in assay [1] and in assay [2] were 6.00 to 7.00 and > 7.00, respectively. For the same compound, the negative logarithm of the IC50 (pIC50) on PRMT5/MEP50 complex was > 7.00.

On to `O=C(COc1ccccc1C1CCCNC1)NCC(O)CN1CCc2ccccc2C1` (stereo not given), for which the pEC50 was 5.00 to 6.00 in assay [1] and 6.00 to 7.00 in assay [2]. For the same compound, the negative-log IC50 (pIC50) at PRMT5/MEP50 complex is 6.00 to 7.00.

Regarding `CN1CCC(c2ccccc2OCC(=O)NCC(O)CN2CCc3ccccc3C2)CC1` (stereo not given), the values for the pEC50 in assay [1] and in assay [2] were < 4.70 and 5.00 to 6.00, respectively. The pIC50 on PRMT5/MEP50 complex was 6.00 to 7.00.

For `O=C(COc1ccccc1-c1ncc[nH]1)NCC(O)CN1CCc2ccccc2C1` (stereo not given), the negative logarithm of the EC50 (pEC50) is < 4.70 in assay [1] and 5.00 to 6.00 in assay [2]. In addition, the negative logarithm of the IC50 (pIC50) at PRMT5/MEP50 complex is 6.00 to 7.00.

As to `CN(C)c1ncccc1OCC(=O)NCC(O)CN1CCc2ccccc2C1` (stereo not given), the pEC50 in assay [1] was < 4.70; in assay [2] it was 5.00 to 6.00. In addition, at PRMT5/MEP50 complex, the pIC50 is 6.00 to 7.00.

As to `CC(=O)N1CCN(S(=O)(=O)c2ccccc2OCC(=O)NCC(O)CN2CCc3ccccc3C2)CC1` (stereo not given), the pEC50 in assay [1] is < 4.70; in assay [2], 5.00 to 6.00. The pIC50 on PRMT5/MEP50 complex was 6.00 to 7.00.

For `O=C(NCC(O)CN1CCc2ccccc2C1)c1cccc(NC2CCOCC2)c1` (stereo not given), the pEC50 is 6.00 to 7.00 in assay [1] and > 7.00 in assay [2]. For the same compound, the pIC50 at PRMT5/MEP50 complex is > 7.00.

As for `O=C(NCC(O)CN1CCc2ccccc2C1)c1ccccn1` (stereo not given), the negative logarithm of the EC50 (pEC50) in assay [1] was < 4.70; in assay [2], 6.00 to 7.00. In addition, the negative logarithm of the IC50 (pIC50) at PRMT5/MEP50 complex was 6.00 to 7.00.

Take `CN(C)CCOc1cccc(C(=O)NCC(O)CN2CCc3ccccc3C2)c1` (stereo not given): the pEC50 in assay [1] is 4.30 to 5.00; in assay [2] it was 6.00 to 7.00. Further, the pIC50 on PRMT5/MEP50 complex is > 7.00.

Turning to `O=C(NC[C@H](O)CN1CCc2ccccc2C1)c1ccccc1`, the pEC50 in assay [1] was 5.00 to 6.00; in assay [2], > 7.00. The pIC50 at PRMT5/MEP50 complex is > 7.00.

`NC(=O)c1cccc(C(=O)NCC(O)CN2CCc3ccccc3C2)c1` (stereo not given): the pEC50 in assay [1] was < 4.70; in assay [2] it was 5.00 to 6.00. Further, the negative-log IC50 (pIC50) at PRMT5/MEP50 complex was 6.00 to 7.00.

Turning to `CS(=O)(=O)Nc1cccc(C(=O)NCC(O)CN2CCc3ccccc3C2)c1` (stereo not given), the negative-log EC50 (pEC50) in assay [1] was 5.00 to 6.00; in assay [2] it was 6.00 to 7.00. The negative logarithm of the IC50 (pIC50) at PRMT5/MEP50 complex is > 7.00.

`O=C(NCC(O)CN1CCc2ccccc2C1)c1ccccc1-c1ccccn1` (stereo not given): the pEC50 was < 4.70 in assay [1] and 5.00 to 6.00 in assay [2]. Besides, on PRMT5/MEP50 complex, the negative logarithm of the IC50 (pIC50) was 6.00 to 7.00.
